The test system of one assay is BSEP mRNA in HepG2 cells. Put plainly: Relative expression of BSEP mRNA in HepG2 cells (qPCR), Experimental Example 1. It is filed as cell-based, human. The note with it: Table 1, 24 hrs, expression under 3 μM of PX-104 as 100%. Here is the method: compounds of the present invention (for their chemical names and preparation methods, see the preparation example of each compound); compound PX-104 and compound 30-70 (for their structures, see the background of the invention, and for their preparation methods, see patent applications WO2011020615A1 and WO2012087519A1).
Cells were digested with pancreatin and collected, and the concentration of the cells was determined; according to the counting result, the cells were resuspended to a density of 7.5×10^5 cells/mL; 2 mL of the cell suspension was inoculated in each well of a 6-well cell culture plate; and the culture plate was placed in an incubator and cultured under the conditions of 37° C. and 5% CO2 for 24 hrs.
The to-be-tested compounds were diluted to 0.3 mM and 3 mM with DMSO; and 5 μL of each stock solution diluted in the previous step was added to 5 mL of medium individually. The concentrations of the obtained working solutions were 0.3 μM and 3 μM respectively. In the control group, medium was prepared by using equivoluminal DMSO instead of the stock solutions; the cell culture plate was taken out from the incubator; the medium was removed from the cell culture plate, and the working solutions and the control medium were added correspondingly; and the culture plate was then put back into the incubator and cultured under the conditions of 37° C. and 5% CO2 for 24 hrs.
after treatment for 24 hrs, the cell culture plate was taken out, and the medium was removed from the plate; the cells were rinsed three times with pre-cooled (4° C.) PBS; and 200 μL of pancreatin (preheated to 37° C.) was added to each well, and the plate was then gently shaken such that the pancreatin could evenly cover the plate bottom. The culture plate was then placed back into the incubator and incubated until the cells were separated from the plate bottom. 1 mL of medium was added to terminate digestion. The solution was gently pipetted and blown for several times with a pipettor, all the substances in each well were pipetted into a 1.5 mL Rnase-free centrifuge tube and centrifuged at 200×g for 5 mins; supernatants were removed to collect cell samples.
Cell lysis: Fresh RNA lysis buffer was prepared (wherein 10 μL of 2-mercaptoethanol was added to 1 mL of lysis buffer); 600 μL of lysis buffer was added to each cell sample; the cells were lysed completely by 1 to 2 mins of vigorous vortexing; the cell lysates were centrifuged at 12,000×g for 5 mins; and the supernatants were transferred to 1.5 mL Rnase-free centrifuge tubes.
Extraction and purification of RNA: An equal amount of 70% ethanol was added to each cell lysate; the centrifuge tubes were then shaken vigorously, and the buffer was mixed sufficiently, so that the particulate precipitates that might be formed after the addition of ethanol were dispersed as even as possible; and adsorption columns were put into collecting tubes, and the mixtures were transferred to the adsorption columns. 700 μL was transferred at most each time; and the solutions were centrifuged at 12,000×g under room temperature for 15 secs. The solutions in the collecting tubes were discarded, and the adsorption columns were put into the collecting tubes once again; and all the remaining mixtures were then transferred into the adsorption columns. 700 μL of eluent I was added to the adsorption column; and the solutions were centrifuged at 12,000×g under room temperature for 15 secs. The adsorption columns were put into new collecting tubes; 500 μL of eluent II was added to the adsorption column; and the solutions were centrifuged at 12,000×g under room temperature for 15 secs. […]

The subject of a further assay is SHP mRNA in AML12 cells. Put plainly: Relative expression of SHP mRNA in AML12 cells, EC50 (Experimental Example 4). It is filed as cell-based. The note with it: Mus musculus, 24 hrs. Here is the method: compounds of the present invention (for their chemical names and preparation methods, see the preparation example for each compound).
AML12 cells: mouse liver cells.
Control: compound 1-1B with a structure shown as follows, prepared according to a prior art method (for detailed information, see patent application WO2012087519A1).
Cells were digested with pancreatin and collected, and the concentration of the cells was determined; according to the counting result, the cells were resuspended to a density of 7.5×10^4 cells/mL; 1 mL of the cell suspension was inoculated in each well of a 12-well cell culture plate; and the culture plate was placed in an incubator and cultured under the conditions of 37° C. and 5% CO2 for 24 hrs.
The compound were diluted to 1000, 200, 8, 1.6, 0.32, 0.128, 0.0256 and 0.00512 μM with DMSO. Compound solutions of different concentrations obtained in the previous step were further diluted by 1000 times with media to obtain working solutions, and a medium containing 0.1% of DMSO was adopted as a control group. The cell culture plate was taken out from the incubator, the medium was removed, and the working solutions and the control medium were added. The culture plate was placed back into the incubator and cultured under the conditions of 37° C. and 5% CO2 for 24 hrs.
after treatment for 24 hrs, the cell culture plate was taken out from the incubator, and the medium was removed from the plate; the cells were rinsed three times with pre-cooled (4° C.) PBS (phosphate buffer solution); and 200 μL of pancreatin (preheated to 37° C.) was added to each well, and the plate was then gently shaken such that the pancreatin could evenly cover the plate bottom. The culture plate was then placed back into the incubator and incubated until the cells were separated from the plate bottom. 1 mL of medium was added to terminate digestion. […]

Each structure is given as a SMILES string.

By EC50 is commonly meant the concentration that produces a half-maximal response.

Take `O=C(O)c1ccc2nc(N3C[C@@H]4C[C@H]3C[C@H]4OCc3c(-c4c(Cl)cccc4Cl)noc3C3CC3)sc2c1` [Compound 2-1, 2-((1S, 4S, 5R)-5-((5-cyclopropyl-3-(2,6-dichlorophenyl)isoxazol-4-yl)methoxy)-2-azabicyclo[2.2.1]heptan-2-yl)benzo[d]thiazole-6-carboxylic acid]: the “relative expression of BSEP mRNA in HepG2 cells” value with BSEP mRNA in HepG2 cells (0.3 μM) stood at 166%; with BSEP mRNA in HepG2 cells (3 μM), 185%. This molecule also displayed an EC50 with SHP mRNA in AML12 cells of 0.76 nM.

These data come from patent US11352358B2, “FXR agonist” (XUANZHU BIOPHARMACEUTICAL CO., LTD., priority 2017, dated 2022).
